What was measured:
Assay type in all cases: in vivo, mouse
occludin = test: Western blot of occludin in brain after SAH; details: wild-type mice, adropin 450 nmol/kg i.p. vs vehicle
Protocol: (§1) Synthetic adropin^34-76 peptide was supplied from Bachem (Bubendorf, Switzerland) and diluted in 0.1% BSA in saline. 0.1% BSA in saline was used as vehicle control for all experiments. Adropin (450 nmol/kg) or an equivalent volume of vehicle was delivered via intraperitoneal injection 15 minutes post-SAH. For experiments ending at 24 hours post-SAH, an identical dose of adropin/vehicle was given again 12 hours later. For experiments ending 7 days post-SAH, adropin/vehicle was given again on days 1, 3 & 5 post-SAH. In the aneurysm rupture model, adropin was given at a dose of 450 nmol/kg starting 3 days before aneurysm induction (elastase injection). Adropin was given every other day until sacrifice
(§2) SAH was modeled using the anterior circulation single autologous blood injection method^25,33 with minor adjustments. Mice were anesthetized with ketamine (100 mg/kg) and xylazine (10 mg/kg) before removing hair from scalp and cleaning with serial betadine—saline washes. The tail was also prepped from the base extending 1 cm distally. Mice were then fixed into a stereotaxic frame and body temperature maintained at 37° C. The scalp was incised along the sagittal suture from bregma to the nasal bone. […]
(§3) At 24 hours or 7 days post-SAH, mice were deeply anesthetized and perfused with 10 mL of ice-cold PBS. […] Samples were centrifuged, supernatant collected, and protein quantified via Bradford assay. […]

[1] = system: wild-type mice, SAH model; test: Brain water content (cerebral edema) after SAH; details: 24 hours post-SAH, adropin 450 nmol/kg i.p.
Protocol: as §1
as §2, with “C.” for “C. The scalp was incised along the sagittal suture from bregma to the nasal bone.”
Brain water content was measured using the wet weight—dry weight method.^34 Twenty-four hours post-SAH, brains were removed from the skull and the olfactory lobe and hindbrain were removed from the cortex and midbrain. […]

[2] = system: wild-type mice, SAH model; test: Sodium fluorescein extravasation assay (blood-brain barrier permeability) after SAH; details: 24 hours post-SAH, adropin 450 nmol/kg i.p.
Protocol: as §1
as §2, with “bone. The skin was reflected and a burr hole was drilled 5.0 mm rostral of bregma and 0.5 mm right laterally to avoid puncturing dural venous sinuses.” for “bone.”

[3] = system: wild-type mice, SAH model; test: Cerebral blood flow by laser speckle contrast imaging after SAH; details: day 1 post-SAH, adropin 450 nmol/kg i.p.
Protocol: as §1
as §2, with “C.” for “C. The scalp was incised along the sagittal suture from bregma to the nasal bone.”
One day post-SAH, animals were anesthetized with ketamine/xylazine as described above, placed in a supine position in a stereotaxic frame. […] Blood flow (perfusion) values are calculated using PIMsoft software (PeriMed AB, Stockholm, Sweden) as arbitrary “perfusion units”. […]

eNOS = test: Western blot of total eNOS and p-eNOS (Ser1179) in brain after SAH
Protocol: as §1
SAH was modeled using the anterior circulation single autologous blood injection method^25,33 with minor adjustments. Mice were anesthetized with ketamine (100 mg/kg) and xylazine (10 mg/kg) before removing hair from scalp and cleaning with serial betadine—saline washes. The tail was also prepped from the base extending 1 cm distally. Mice were then fixed into a stereotaxic frame and body temperature maintained at 37° C. The scalp was incised along the sagittal suture from bregma to the nasal bone. The skin was reflected and a burr hole was drilled 5.0 mm rostral of bregma and 0.5 mm right laterally to avoid puncturing dural venous sinuses. […] 50 μL of blood was drawn into a Hamilton syringe (Hamilton, Reno, Nevada) and passed through the cranial burr hole at an angle of 30° caudally until contact with the skull base (approximately 7.2 mm). The syringe was left in place for 30 seconds to allow for tissue accommodation before blood was manually injected at a rate of 10 μL/minute. After blood injection was complete, the syringe was left in place for an additional 3 minutes and then retracted slowly at a rate of 10 mm/minute. Sham surgery was the identical procedure and timing including placement of the stereotactic needle but without blood injection. After the needle and syringe were removed, the burr hole was covered and skin flap was sutured with 5-0 ethilon suture.
At 24 hours or 7 days post-SAH, mice were deeply anesthetized and perfused with 10 mL of ice-cold PBS. Brains were harvested from the skull and placed into a cold brain matrix (Harvard Apparatus, Holliston, Massachusetts). The olfactory lobe was removed, and brains were cut in half along the mid-sagittal plane. The right hemisphere was cut again 2 mm caudally from the rostral edge and the pieces of tissue were snap frozen in liquid N2. Once all tissue samples were collected, brains were homogenized with a Dounce homogenizer and incubated in radioimmunoprecipitation assay (RIPA) buffer at 4° C. for 90 minutes with constant agitation. Samples were centrifuged, supernatant collected, and protein quantified via Bradford assay. Samples were then frozen at −20° C. or used immediately. 30 μg of total protein was separated electrophoretically through a 4-15% tris-glycine gel at 90V for 60 minutes and transferred onto nitrocellulose membranes with 0.45 μm pore size. Membranes were blocked with 5% skim milk in TBST (5% BSA for phospho-eNOS blots) for 1 hours at room temperature and then probed with specified primary antibodies (Table 1) diluted in 5% skim milk (5% BSA for phospho-eNOS) overnight at 4° C. with constant agitation. […]

[4] = system: wild-type mice, SAH model; test: TUNEL/NeuN staining for neuronal apoptosis after SAH; details: seven days post-SAH
Protocol: as §1
(§4) SAH was modeled using the anterior circulation single autologous blood injection method^25,33 with minor adjustments. […]
(§5) Following perfusion-fixation and overnight post-fixation in 4% PFA, brain samples were embedded in paraffin wax and cut into […] sections with a Leica RM2125 RTS microtome (Leica Microsystems, Buffalo Grove, New York) and adhered to poly-L-lysine-coated glass slides. […] Primary antibodies were detected using donkey anti-rabbit IgG AlexaFluor594, donkey anti-rabbit IgG AlexaFluor488, donkey anti-rat IgG AlexaFluor594, or donkey anti-goat IgG AlexaFluor488 (all from ThermoFisher, Waltham, Massachusetts). […] All images were analyzed by two blinded observers.

MMP9 = test: Western blot of MMP9 in brain after SAH; details: wild-type mice, adropin 450 nmol/kg i.p. vs vehicle
Protocol: as §1, §2, §3

[5] = system: wild-type mice, SAH model; test: Fibrinogen immunostaining for microthrombi after SAH; details: 24 hours post-SAH, adropin 450 nmol/kg i.p.
Protocol: as §1, §4, §5

For “adropin (CHSRSADVDSLSESSPNSSPGPCPEKAPPPQKPSHEGSYLLQP) [Synthetic adropin^34-76 peptide from Bachem]”, the “occludin expression (immunoblot)” value (occludin) was “preserved the expression of occludin”, the “brain water content (cerebral edema)” value [1] was “this effect was blunted by adropin treatment” and the “barrier permeability, average area of positive fluorescein signal” value [2] was “adropin treatment reduced this effect”. The “cerebral blood flow (CBF), perfusion” value [3] was “adropin treatment restored CBF back to baseline”, the phospho-eNOS levels (eNOS; 7 day post-SAH) was “adropin treatment increase phospho-eNOS levels” and the “total eNOS” value (eNOS; 7 day post-SAH) was “slightly increased in both SAH groups; however, neither reached statistical significance”. For the same substance, the Phospho-eNOS/eNOS ratio (eNOS; 7 day post-SAH, p=0.08 vs SAH+vehicle, p=0.08 vs sham+vehicle) was “trended higher with adropin treatment”, the “p-eNOS/total eNOS ratio” value (eNOS; one day post-SAH) was “no change in p-eNOS/total eNOS ratios between any groups” and the “eNOS phosphorylation (Ser1179)” value (eNOS; one day post-SAH, vs SAH+vehicle) was “increased eNOS phosphorylation one day post-SAH”. For the same substance, the “NeuN+/TUNEL+ cells (neuronal apoptosis)” value [4] was “did not have as many TUNEL^+ neurons”, the “cleaved MMP9 levels (immunoblot)” value (MMP9) was “an effect abolished by adropin treatment” and the “number of microthrombi (fibrinogen immunostaining)” value [5] was “adropin treatment completely abolished this effect”.

— US20250144179A1, “PEPTIDE HORMONE TO PREVENT OR TREAT VASOSPASM, BRAIN INJURY OR CEREBRAL EDEMA” (UNIVERSITY OF FLORIDA RESEARCH FOUNDATION, INCORPORATED, priority 2022, published 2025)
